Common to all, as to test: Mutant β-galactosidase activity in model cells, 4 days culture
Holding throughout (type): cell-based

Assay [1] addresses T1, human mutant β-galactosidase P263S (Homo sapiens, UniProt P16278, P263S).
T1 construct: expressed in transfected cells; host or cells: SV40-immortalized skin fibroblasts of a β-galactosidase-deficient knockout mouse
T1 sequence (P16278 29-677 P263S): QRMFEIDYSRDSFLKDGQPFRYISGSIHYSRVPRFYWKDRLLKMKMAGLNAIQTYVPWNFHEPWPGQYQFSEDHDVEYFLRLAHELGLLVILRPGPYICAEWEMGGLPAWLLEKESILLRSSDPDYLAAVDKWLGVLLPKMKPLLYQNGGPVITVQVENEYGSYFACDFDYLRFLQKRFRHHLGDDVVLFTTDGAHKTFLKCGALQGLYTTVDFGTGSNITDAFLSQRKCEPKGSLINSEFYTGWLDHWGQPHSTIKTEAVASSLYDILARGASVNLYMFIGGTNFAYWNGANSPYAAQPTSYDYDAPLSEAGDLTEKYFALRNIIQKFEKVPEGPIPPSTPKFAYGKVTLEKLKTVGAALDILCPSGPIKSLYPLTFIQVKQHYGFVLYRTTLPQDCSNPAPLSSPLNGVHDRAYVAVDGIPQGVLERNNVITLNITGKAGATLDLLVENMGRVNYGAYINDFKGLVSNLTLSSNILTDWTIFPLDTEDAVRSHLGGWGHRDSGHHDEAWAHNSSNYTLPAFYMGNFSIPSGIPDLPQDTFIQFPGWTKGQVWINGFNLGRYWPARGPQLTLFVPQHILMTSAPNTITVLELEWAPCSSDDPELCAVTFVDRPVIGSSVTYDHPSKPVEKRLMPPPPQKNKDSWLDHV
From the text: (§1) Cultured skin fibroblasts of a β-galactosidase-deficient knockout mouse was immortalized by introducing an SV40 viral gene, and enzyme genes integrated into pSV2neo and an expression vector were also introduced simultaneously, thereby establishing a model cell (Brain Dev., 23(5), 284-287, 2001). The genes used are human normal (GP8) and mutant β-galactosidase gene Y316C, G123R (infantile GM1-gangliosidosis), R201C (juvenile GM1-gangliosidosis), 151T, T82M, R201H, R263S, R457Q (adult GM1-gangliosidosis), W273L, Y83H, R482H and R482C (Morquio-B disease) (Hum. Genet., 93(2), 109-114, 1994).
(§2) As a control substance, 0.5 mM N-(n-butyl)-deoxygalactonojirimycin (NB-DGJ: The Journal of Biological Chemistry, 269, 27108-27114 (1994)) was used, and the substance 18 of the present invention was used in an amount of 0.2 μM.
(§3) Specifically, after culturing the model cell for 4 days using a cell culture medium (10% FCS DMEM) containing the substance 18 of the present invention, the resulting cells were recovered and diluted such that the amount of protein in the suspension became a predetermined level, and then enzyme activity in the diluted suspension was measured. Using 4-methylumbelliferyl-β-D-galactopyranoside as the fluorescent substrate, the enzyme activity during 30 minutes was measured at 37° C.

Assay [2] has as its target T2, human mutant β-galactosidase R201C (Homo sapiens, UniProt P16278, R201C).
T2 construct: from tissue
T2 sequence (P16278 29-677 R201C): T1 sequence (P16278 29-677 P263S) with R173C, S235P
From the text: as §1, §2, §3

Assay [3] concerns the target T3, human mutant β-galactosidase R482C (Homo sapiens, UniProt P16278, R482C).
T3 construct: expressed in transfected cells; host or cells: SV40-immortalized skin fibroblasts of a β-galactosidase-deficient knockout mouse
T3 sequence (P16278 29-677 R482C): T1 sequence (P16278 29-677 P263S) with S235P, R454C
From the text: as §1, §2, §3

The record followed here is US8211945B2, “Carba-sugar amine derivative and glycolipid metabolic disorder treating agent containing the same as active ingredient” (Seikagaku Corporation, priority 2001, dated 2012).

Numbering of substitutions follows the chain as printed.

For `CCCCN1C[C@H](O)[C@@H](O)[C@@H](O)[C@H]1CO` [Control, N-(n-butyl)-deoxygalactonojirimycin, reference compound], the “enzyme activity, Control” value in assay [1] (transferred gene P263S, control substance 0.5 mM NB-DGJ) is on record as 0.02; in assay [2] (transferred gene R201C, control substance 0.5 mM NB-DGJ), 20.16; in assay [3] (transferred gene R482C, control substance 0.5 mM NB-DGJ), 0.14.
On to `CCCCCCCCN[C@@H]1C=C(CO)[C@H](O)C(O)[C@@H]1O` (stereo partly drawn) [Substance 18, N-octyl-5a-carba-α-L-arabino-hexo-5(5a)-enopyranosylamine], for which the “Relative ratio (×100%)” value was 6.58 ×100% in assay [1] (P263S, substance 18 vs control); 2.43 ×100% in assay [2] (R201C, substance 18 vs control); 4.25 ×100% in assay [3] (R482C, substance 18 vs control). Also, the enzyme activity in assay [1] (transferred gene P263S, 0.2 μM, 4 days) stood at 0.12; in assay [2] (transferred gene R201C, 0.2 μM, 4 days), 48.88; in assay [3] (transferred gene R482C, 0.2 μM, 4 days), 0.62. Besides, in assay [2] (R201C, 0.2 μM), the “enzyme activity increased in comparison with the control” value is given as at least 150%.
